In PMC6374920, “Synthesis and biological evaluation of 3-arylcoumarins as potential anti-Alzheimer's disease agents” (Journal of Enzyme Inhibition and Medicinal Chemistry, 2019):

Key:
[1] = In vitro antioxidant activity, FRAP assay; conditions: FeSO4 as standard; mean ± SD (n = 3)
Experimental: The total antioxidant capacity of the 3-arylcoumarin compounds was measured by the FRAP (the Ferric Reducing Ability of Plasma) assay of Benzie et al.[29] with slight modifications. This method is based on the reduction of colourless Fe(III)-TPTZ(2,4,6-Tris(2-pyridyl)-s-triazine) complex to coloured Fe(II)-TPTZ complex by the compounds. FRAP working solution (300 mmol/L acetate buffer, 10 mmol/L TPTZ, 20 mmol/LFeCl3) was ready to use. A hundred microlitres of the sample solution was added to 3 ml of FRAP reagent and then incubated at 37 °C for 15 min. The experiments were repeated for three times. The absorbance was measured at 593 nm to clarify the changes. The standard curve was drawn with FeSO4 as standard material, and the regression equation was obtained. With 1.0 mmol/L FeSO4 as standard, the antioxidant activity of the sample is expressed in millimoles of […] required to achieve the same absorbance.

BuChE from horse serum = BuChE from horse serum (Equus caballus, UniProt P81908); conditions: for IC50: read-out: IC50 value BuChE inhibitory activity, BuChE from horse serum, mean ± SD (n = 3)
Experimental: (§1) The anticholinesterase activity of the 3-arylcoumarin compounds was determined by the method of Ellman et al.[25] with slight modifications. AChE inhibitory activities were determined by AChE from electric eel (Macklin). BuChE inhibitory activities were determined by BuChE from horse serum (Aladdin). To a 10 ml tube, 2.65 ml of phosphate buffer solution (0.1 M, pH = 8.0), 100 µL of 5,5-dithiobis-2-nitrobenzoic acid (0.75 mM in 0.1 M phosphate buffer solution, pH = 8.0) were added sequentially, 50 µL AChE solution (0.2 U/mL in 0.1 M phosphate buffer solution, pH = 8.0), 100 µL of different concentrations of the sample solution, shaken well, and incubated at 37 °C for 5 min. Then 100 µL of substrate (1.5 mM in 0.1 M phosphate buffer solution, pH = 8.0) were added, shaken well, and incubated at 37 °C for 20 min. After the reaction was completed, 1 ml of sodium lauryl sulphate (4%, SDS in water) was added. […] Determination of the inhibitory activity of BuChE is similar. The sample blank group replaced the substrate with PBS, and the blank group replaced the sample solution with a solvent. The sample solution was set to five concentration gradients and the experiment was repeated three times. […] Cholinesterase inhibitory effect (%)=[A0−(A1−A2)]/A0×100% where A0 is the absorbance of blank group; A1 is the absorbance of sample group; A2 is the absorbance of sample blank group.

AChE from electric eel = AChE from electric eel (Electrophorus electricus, UniProt O42275); conditions: read-out: IC50 value AChE inhibitory activity, mean ± SD (n = 3)
Experimental: as §1

MAO-B = target: T1, MAO-B (Rattus norvegicus, UniProt P19643); assay: In vitro monoamine oxidase inhibitory activity (Holt method, crude enzyme from rat liver); format: biochemical; conditions: crude enzyme from Wistar rat liver; mean ± SD (n = 3)
T1 construct: The crude enzyme was extracted from the liver of 200–250 g of Wistar rats; from tissue; host or cells: Wistar rat liver, crude enzyme extract
T1 sequence (P19643 1-520): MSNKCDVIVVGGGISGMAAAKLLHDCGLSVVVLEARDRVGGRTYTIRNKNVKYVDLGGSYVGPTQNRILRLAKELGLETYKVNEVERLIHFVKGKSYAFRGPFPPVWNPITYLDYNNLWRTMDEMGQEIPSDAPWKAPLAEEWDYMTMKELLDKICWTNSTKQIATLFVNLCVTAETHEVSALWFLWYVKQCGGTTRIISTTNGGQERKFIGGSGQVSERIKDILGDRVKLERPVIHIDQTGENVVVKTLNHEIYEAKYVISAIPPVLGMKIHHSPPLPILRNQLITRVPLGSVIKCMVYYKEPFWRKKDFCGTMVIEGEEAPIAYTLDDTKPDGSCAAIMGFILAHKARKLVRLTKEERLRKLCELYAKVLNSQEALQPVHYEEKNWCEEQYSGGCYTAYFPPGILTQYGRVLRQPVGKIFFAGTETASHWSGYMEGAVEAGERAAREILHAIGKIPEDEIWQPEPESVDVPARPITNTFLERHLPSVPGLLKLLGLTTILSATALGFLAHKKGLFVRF
Experimental: The MAO inhibitory activity of the 3-arylcoumarin compounds was determined by the method of Holt et al.[26] with slight modifications. The crude enzyme was extracted from the liver of 200–250 g of Wistar rats according to literature methods. The crude enzyme protein content was determined by the Bradford/method using a Bradford Protein Assay Kit (Beyotime). Forty microlitres of enzyme solution and 40 µL of sample solution were added to a 96-well plate. The solution was then incubated at 37 °C for 20 min. One-twenty microlitres of the 4-(trifluoromethyl) benzylamine solution and 40 µL of the chromogenic agent (1 mmol/L vanillic acid, 0.5 mmol/L 4-aminoantipyrine, 4U/mL horseradish peroxidase, 0.2 M pH = 7.6 PBS constant volume) were added subsequently, and incubated at 37 °C for 90 min. The absorbance was measured at 490 nm using a microplate reader, and the inhibition rate of MAO and the IC50 value of each sample were calculated according to the formula. The control group replaced the sample solution with PBS (0.2 M, pH = 7.6), the positive control replaced the sample with the positive drug, and the blank group replaced the substrate with PBS, and each group was measured three times in parallel to average. Monoamineoxidase inhibitory effect (%)=[(AC−AB)−(AS−ASB)]/(AC−AB)×100% where AC is the absorbance of control group; AB is the absorbance of blank group; AS is the absorbance of sample group; ASB is the absorbance of sample blank group.
MAO plays an important role in neurotransmitter inactivation, and MAO dysfunction is considered to be the cause of many mental and neurological diseases. MAO plays an important role in AD pathology, and the progress of AD has a close correlation with MAO activity[35]^,[36]. All the synthesised compounds were evaluated for their MAO inhibitory activity in the way of Holt[26] by references. […] The MAO used in the experiment was self-made.

Sequence of BuChE from horse serum (P81908 whole entry): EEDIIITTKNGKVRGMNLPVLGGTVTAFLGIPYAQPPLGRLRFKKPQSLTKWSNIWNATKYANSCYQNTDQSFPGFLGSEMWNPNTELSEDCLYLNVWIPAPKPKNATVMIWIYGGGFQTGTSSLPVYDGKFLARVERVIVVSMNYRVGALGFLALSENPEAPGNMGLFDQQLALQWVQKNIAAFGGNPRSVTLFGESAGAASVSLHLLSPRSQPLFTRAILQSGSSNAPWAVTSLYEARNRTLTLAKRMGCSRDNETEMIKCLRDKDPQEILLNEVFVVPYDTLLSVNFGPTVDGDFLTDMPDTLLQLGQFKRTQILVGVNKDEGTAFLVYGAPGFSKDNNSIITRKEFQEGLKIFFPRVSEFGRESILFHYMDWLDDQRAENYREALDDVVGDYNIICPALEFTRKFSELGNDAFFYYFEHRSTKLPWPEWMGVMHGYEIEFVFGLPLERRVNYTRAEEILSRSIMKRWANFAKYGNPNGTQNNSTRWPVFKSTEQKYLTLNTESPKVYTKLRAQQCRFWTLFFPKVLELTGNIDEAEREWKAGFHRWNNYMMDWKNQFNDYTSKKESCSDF
Sequence of AChE from electric eel (O42275 24-633): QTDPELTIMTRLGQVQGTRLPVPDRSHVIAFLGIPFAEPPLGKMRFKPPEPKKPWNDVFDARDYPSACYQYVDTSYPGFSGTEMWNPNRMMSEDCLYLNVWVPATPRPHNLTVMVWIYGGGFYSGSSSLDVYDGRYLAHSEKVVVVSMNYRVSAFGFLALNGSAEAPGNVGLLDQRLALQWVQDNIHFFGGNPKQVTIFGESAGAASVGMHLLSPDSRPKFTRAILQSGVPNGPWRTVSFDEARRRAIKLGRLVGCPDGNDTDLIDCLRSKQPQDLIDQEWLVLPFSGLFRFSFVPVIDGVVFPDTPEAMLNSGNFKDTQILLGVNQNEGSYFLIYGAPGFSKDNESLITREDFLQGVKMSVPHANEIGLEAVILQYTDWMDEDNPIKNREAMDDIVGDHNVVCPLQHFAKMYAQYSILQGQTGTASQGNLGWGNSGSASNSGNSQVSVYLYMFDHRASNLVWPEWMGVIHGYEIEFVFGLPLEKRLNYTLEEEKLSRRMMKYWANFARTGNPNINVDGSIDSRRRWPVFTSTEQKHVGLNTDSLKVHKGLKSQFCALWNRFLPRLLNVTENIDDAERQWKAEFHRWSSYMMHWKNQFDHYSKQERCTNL

Compound	FRAP value Antioxidant activity [1]	IC50 (BuChE from horse serum)	IC50 (AChE from electric eel)	IC50 (MAO-B)	selectivity BuChE over AChE (in words) (BuChE from horse serum; BuChE vs AChE inhibition)
O=C1O[C@H]([C@@H](O)CO)C(O)=C1O [Ascorbic Acid, reference compound]	3.79 ± 0.08 mmol/g				
O=c1oc2ccccc2cc1-c1ccc(O)cc1 [Compound 1]	0.51 ± 0.09 mmol/g	44.8 ± 2.35 µM	78.5 ± 2.84 µM	> 700 µM	
O=c1oc2cc(O)ccc2cc1-c1ccc(O)cc1 [Compound 4]	7.73 ± 0.12 mmol/g	34.7 ± 1.87 µM		> 700 µM	
O=c1oc2cc(O)ccc2cc1-c1ccccc1 [Compound 5]	0.42 ± 0.01 mmol/g	14.4 ± 1.94 µM		> 700 µM	selective BuChE inhibitory activity
COc1ccc(-c2cc3ccc(O)cc3oc2=O)cc1 [Compound 9]	0.67 ± 0.04 mmol/g	30.1 ± 3.06 µM		> 700 µM	
COc1ccc2cc(-c3ccc(O)cc3)c(=O)oc2c1 [Compound 13]	0.61 ± 0.11 mmol/g	70.7 ± 5.75 µM	42.4 ± 3.16 µM	> 700 µM	
